Measurements: PMC11649115, “In vitro safety evaluation of dopamine D3R antagonist, R-VK4-116, as a potential medication for the treatment of opioid use disorder” (PLOS ONE, 2024)

How the values were obtained:
CYP2C9 = CYP2C9 (Homo sapiens, UniProt P11712); assay: CYP inhibition in human liver microsomes; settings: human liver microsomes
CYP3A4 = assay: CYP induction, in situ catalytic activity, human hepatocytes; type: in vitro ADME
24 receptor targets = assay: Cellular and nuclear receptor functional assays, agonist and antagonist effect (panel); type: cell-based; settings: 10 μM
Protocol: The purpose of this study was to provide a first step in preliminary safety assessments by providing early identification of potential off-target interactions for the optimization of safety margins. This study was conducted by Eurofins Cerep (France) and Eurofins Discovery (St. Charles, MO). R-VK4-116 was tested in enzyme and uptake assay with 10 enzyme targets (Figs 4 and 5 in S1 File), and cellular and nuclear receptor functional assays with 24 receptor targets (Figs 5 and 6 in S1 File). Compound enzyme inhibition effect was calculated as a % inhibition of control enzyme activity. The cellular agonist effect was calculated as a % of the control response to a known reference agonist for each target, and the cellular antagonist effect was calculated as a % inhibition of the control reference agonist response for each target.

CYP2C8 = target: T1, CYP2C8 (Homo sapiens, UniProt P10632); assay: CYP inhibition in human liver microsomes; settings: human liver microsomes
T1 sequence (P10632 1-490): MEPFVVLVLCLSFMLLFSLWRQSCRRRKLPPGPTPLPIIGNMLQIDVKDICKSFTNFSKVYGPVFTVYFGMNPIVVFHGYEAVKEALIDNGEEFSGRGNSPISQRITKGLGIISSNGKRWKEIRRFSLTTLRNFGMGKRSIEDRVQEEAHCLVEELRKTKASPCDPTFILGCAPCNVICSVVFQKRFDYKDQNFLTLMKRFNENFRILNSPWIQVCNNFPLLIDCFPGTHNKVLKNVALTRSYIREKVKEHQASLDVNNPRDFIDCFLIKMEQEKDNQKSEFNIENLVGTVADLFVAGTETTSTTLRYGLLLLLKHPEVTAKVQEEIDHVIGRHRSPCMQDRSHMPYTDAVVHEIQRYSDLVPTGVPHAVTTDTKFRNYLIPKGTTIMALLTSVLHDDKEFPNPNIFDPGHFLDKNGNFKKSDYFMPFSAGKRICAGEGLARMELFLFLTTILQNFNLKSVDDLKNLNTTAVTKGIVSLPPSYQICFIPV

HepG2 cells = assay: Cytotoxicity MTT assay in HepG2; type: cell-based; settings: 72-hr, 10 to 100 μM
OAT3 = target: T2, OAT3 (Homo sapiens, UniProt Q8TCC7); assay: Transporter mediated assay (substrate/inhibitor), MDCK-II cells; type: in vitro ADME
T2 construct: expressed in transfected cells; host or cells: MDCK-II cells
T2 sequence (Q8TCC7 1-542): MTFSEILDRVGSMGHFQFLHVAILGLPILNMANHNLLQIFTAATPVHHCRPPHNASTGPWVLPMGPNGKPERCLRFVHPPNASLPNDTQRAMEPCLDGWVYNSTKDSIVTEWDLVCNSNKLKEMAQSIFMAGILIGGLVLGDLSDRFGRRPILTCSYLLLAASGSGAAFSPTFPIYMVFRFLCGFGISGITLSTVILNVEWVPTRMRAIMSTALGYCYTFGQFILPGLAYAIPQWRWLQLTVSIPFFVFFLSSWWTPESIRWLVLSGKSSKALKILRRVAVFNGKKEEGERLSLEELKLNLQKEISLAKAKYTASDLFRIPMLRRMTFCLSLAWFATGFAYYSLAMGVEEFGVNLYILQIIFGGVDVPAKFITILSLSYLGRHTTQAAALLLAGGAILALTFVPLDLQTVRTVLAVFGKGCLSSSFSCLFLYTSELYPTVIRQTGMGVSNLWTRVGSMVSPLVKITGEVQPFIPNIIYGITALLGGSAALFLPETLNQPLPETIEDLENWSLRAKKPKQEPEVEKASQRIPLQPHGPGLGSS
Protocol: The MDCK-II cells were treated to express the transporter of interest. The transport of each probe substrate was determined by radiometric detection (Fig 1 in S1 File). […] For the uptake assay, the net transporter-mediated uptake-rate (V) of the substrate by each SLC transporter was calculated as follows: Transporter–mediatedupdaterate(pmol/min/cm^2)=(Cellularaccumulationincellsexpressingthetransporter)−(Meancellularaccumulationincontrolcells)/Surfacearea×incubationtime
Fold of activity and percent inhibition were determined as follows: Foldofactivity=(Meanuptakerate)transporterexpressingcells/(Meanuptakerate)controlcells Percentinhibition=100−100×(Transport‐mediatedupdaterate)withinhibitor/(Transport‐mediatedupdaterate)vehiclecontrol

CYP2D6 = CYP2D6 (Homo sapiens, UniProt P10635); assay: CYP inhibition in human liver microsomes; settings: human liver microsomes
Chain of CYP2D6 (P10635 whole entry): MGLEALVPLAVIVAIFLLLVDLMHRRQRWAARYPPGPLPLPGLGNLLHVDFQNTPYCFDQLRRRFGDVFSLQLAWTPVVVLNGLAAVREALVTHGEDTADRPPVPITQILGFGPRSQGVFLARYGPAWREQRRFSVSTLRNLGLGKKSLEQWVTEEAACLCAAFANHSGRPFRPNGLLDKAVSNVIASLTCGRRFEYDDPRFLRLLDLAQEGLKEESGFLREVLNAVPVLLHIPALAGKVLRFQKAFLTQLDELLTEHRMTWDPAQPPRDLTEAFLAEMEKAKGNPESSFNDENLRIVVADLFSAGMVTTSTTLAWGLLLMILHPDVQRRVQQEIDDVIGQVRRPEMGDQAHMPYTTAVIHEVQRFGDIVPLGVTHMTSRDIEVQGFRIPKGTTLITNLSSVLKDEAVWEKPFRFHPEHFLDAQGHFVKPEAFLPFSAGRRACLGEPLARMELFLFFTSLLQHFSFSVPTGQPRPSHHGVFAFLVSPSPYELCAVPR

Chain of CYP2C9 (P11712 whole entry): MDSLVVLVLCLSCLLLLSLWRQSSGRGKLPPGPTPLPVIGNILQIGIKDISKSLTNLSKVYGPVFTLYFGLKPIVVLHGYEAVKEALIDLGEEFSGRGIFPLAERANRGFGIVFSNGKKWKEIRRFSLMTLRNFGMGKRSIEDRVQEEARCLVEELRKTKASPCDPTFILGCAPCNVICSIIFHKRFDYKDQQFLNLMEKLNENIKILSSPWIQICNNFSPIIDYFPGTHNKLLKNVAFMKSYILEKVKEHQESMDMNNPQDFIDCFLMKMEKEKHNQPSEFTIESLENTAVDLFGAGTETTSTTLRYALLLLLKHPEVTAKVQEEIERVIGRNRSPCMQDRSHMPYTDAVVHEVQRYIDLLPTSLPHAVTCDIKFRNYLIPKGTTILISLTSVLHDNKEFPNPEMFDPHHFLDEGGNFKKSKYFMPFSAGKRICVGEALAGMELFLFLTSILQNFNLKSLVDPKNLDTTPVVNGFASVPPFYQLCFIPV

`CCc1cc(Cl)c(OC)c(N2CCN(CC(O)CCNC(=O)c3cc4ccccc4[nH]3)CC2)c1` (centres unmarked) [R-VK4-116, N-(4-(4-(3-chloro-5-ethyl-2-methoxyphenyl)piperazin-1-yl)-3-hydroxybutyl)-1H-indole-2-carboxamide] was tested, and the CYP2C9 inhibition (CYP2C9; up to 100 μM) was “did not inhibit CYP significantly”, the activity at 20 min, 0.1 µM (CYP2C9; human, probe diclofenac) was 89.5 ± 9.2% and the activity at 20 min, 0.3 µM (CYP2C9; human, probe diclofenac) was 79 ± 2.7%. For the same compound, the activity at 20 min, 1 µM (CYP2C9; human, probe diclofenac) was 80.9 ± 2.2%, the activity at 20 min, 3 µM (CYP2C9; human, probe diclofenac) was 92.3 ± 10.1% and the activity at 20 min, 10 µM (CYP2C9; human, probe diclofenac) was 91.5 ± 7.3%. For the same compound, the activity at 20 min, 30 µM (CYP2C9; human, probe diclofenac) was 80.9 ± 0.9%, the activity at 20 min, 60 µM (CYP2C9; human, probe diclofenac) was 81.8 ± 3.1% and the activity at 20 min, 100 µM (CYP2C9; human, probe diclofenac) was 93.4 ± 8.1%. For the same compound, the CYP3A4 activity (CYP3A4; 0.01 to 10 μM) was “did not increase”, the “Fold of Vehicle Control (CYP3A4 activity, testosterone-6β-hydroxylation)” value (from here on “Fold of Vehicle Control”) (CYP3A4; hepatocyte Lot 336, 0.01 µM) was 0.96 fold and the “Testosterone-6β- Hydroxylation” value (CYP3A4; hepatocyte Lot 336, 0.01 µM) was 9.1 pmol/min/106 cells. The “Fold of Vehicle Control” value (CYP3A4; hepatocyte Lot 336, 0.1 µM) was 0.80 fold, the “Testosterone-6β- Hydroxylation” value (CYP3A4; hepatocyte Lot 336, 0.1 µM) was 7.5 pmol/min/106 cells and the “Fold of Vehicle Control” value (CYP3A4; hepatocyte Lot 336, 1 µM) was 0.66 fold. For the same compound, the “Testosterone-6β- Hydroxylation” value (CYP3A4; hepatocyte Lot 336, 1 µM) was 6.3 pmol/min/106 cells, the “Fold of Vehicle Control” value (CYP3A4; hepatocyte Lot 336, 3 µM) was 0.63 fold and the “Testosterone-6β- Hydroxylation” value (CYP3A4; hepatocyte Lot 336, 3 µM) was 5.9 pmol/min/106 cells. For the same compound, the “Fold of Vehicle Control” value (CYP3A4; hepatocyte Lot 336, 5 µM) was 0.64 fold, the “Testosterone-6β- Hydroxylation” value (CYP3A4; hepatocyte Lot 336, 5 µM) was 6.1 pmol/min/106 cells and the “Fold of Vehicle Control” value (CYP3A4; hepatocyte Lot 336, 10 µM) was 0.55 fold. For the same compound, the “Fold of Vehicle Control” value (CYP3A4; hepatocyte Lot 348B, 0.01 µM) was 1.0 fold, the “Fold of Vehicle Control” value (CYP3A4; hepatocyte Lot 348B, 0.1 µM) was 1.0 fold and the “Fold of Vehicle Control” value (CYP3A4; hepatocyte Lot 348B, 1 µM) was 0.70 fold. The “Fold of Vehicle Control” value (CYP3A4; hepatocyte Lot 348B, 3 µM) was 0.56 fold, the “Fold of Vehicle Control” value (CYP3A4; hepatocyte Lot 348B, 5 µM) was 0.56 fold and the “Fold of Vehicle Control” value (CYP3A4; hepatocyte Lot 348B, 10 µM) was 0.49 fold. For the same compound, the “Fold of Vehicle Control” value (CYP3A4; hepatocyte Lot 399, 0.01 µM) was 1.0 fold, the “Testosterone-6β- Hydroxylation” value (CYP3A4; hepatocyte Lot 399, 0.01 µM) was 58 pmol/min/106 cells and the “Fold of Vehicle Control” value (CYP3A4; hepatocyte Lot 399, 0.1 µM) was 0.89 fold. For the same compound, the “Testosterone-6β- Hydroxylation” value (CYP3A4; hepatocyte Lot 399, 0.1 µM) was 49 pmol/min/106 cells, the “Fold of Vehicle Control” value (CYP3A4; hepatocyte Lot 399, 1 µM) was 0.45 fold and the “Testosterone-6β- Hydroxylation” value (CYP3A4; hepatocyte Lot 399, 1 µM) was 25 pmol/min/106 cells. For the same compound, the “Fold of Vehicle Control” value (CYP3A4; hepatocyte Lot 399, 3 µM) was 0.32 fold, the “Testosterone-6β- Hydroxylation” value (CYP3A4; hepatocyte Lot 399, 3 µM) was 18 pmol/min/106 cells and the “Fold of Vehicle Control” value (CYP3A4; hepatocyte Lot 399, 5 µM) was 0.30 fold. The “Testosterone-6β- Hydroxylation” value (CYP3A4; hepatocyte Lot 399, 5 µM) was 16 pmol/min/106 cells, the “Fold of Vehicle Control” value (CYP3A4; hepatocyte Lot 399, 10 µM) was 0.23 fold and the “Testosterone-6β- Hydroxylation” value (CYP3A4; hepatocyte Lot 399, 10 µM) was 13 pmol/min/106 cells. For the same compound, the “agonist and antagonist effects for most of the targets” value (24 receptor targets) was “did not exhibit agonist and antagonist effects”, the CYP2C8 inhibition (CYP2C8; up to 100 μM) was “did not inhibit CYP significantly” and the activity at 20 min, 0.1 µM (CYP2C8; human, probe paclitaxel) was 85.9 ± 18.2%. The activity at 20 min, 0.3 µM (CYP2C8; human, probe paclitaxel) was 68.2 ± 2.8%, the activity at 20 min, 1 µM (CYP2C8; human, probe paclitaxel) was 70.5 ± 7.1% and the activity at 20 min, 3 µM (CYP2C8; human, probe paclitaxel) was 95.7 ± 11.2%. The activity at 20 min, 10 µM (CYP2C8; human, probe paclitaxel) was 89.8 ± 19.7%, the activity at 20 min, 30 µM (CYP2C8; human, probe paclitaxel) was 75.8 ± 4.5% and the activity at 20 min, 60 µM (CYP2C8; human, probe paclitaxel) was 75.3 ± 6.4%. The activity at 20 min, 100 µM (CYP2C8; human, probe paclitaxel) was 80.6 ± 15.2%, the “decrease in HepG2 cell viability compared with the solvent control (MTT)” value (HepG2 cells) was 40–50% and the “fold difference in mean uptake rate (substrate test)” value (OAT3; OAT3, 1 μM, transporter cells vs control cells) was under 2 fold. The “Inhibition (%)” value (OAT3; OAT3, 0.1% BSA, 10 μM) was “no statistically significant inhibition”, the inhibition at 10 µM (OAT3; human, polarized monolayer of MDCK-II cells expressing OAT3, OAT3, 0.1% BSA, 10 μM) was -5.73 ± 8.06% and the CYP2D6 inhibition (CYP2D6; up to 100 μM) was “did not inhibit CYP significantly”. It also gave an activity at 20 min, 0.1 µM (CYP2D6; human, probe bufuralol) of 92.6 ± 9%, an activity at 20 min, 0.3 µM (CYP2D6; human, probe bufuralol) of 86.1 ± 4% and an activity at 20 min, 1 µM (CYP2D6; human, probe bufuralol) of 84.3 ± 3.7%. It also gave an activity at 20 min, 3 µM (CYP2D6; human, probe bufuralol) of 92.1 ± 6.8%, an activity at 20 min, 10 µM (CYP2D6; human, probe bufuralol) of 94.7 ± 6.5% and an activity at 20 min, 30 µM (CYP2D6; human, probe bufuralol) of 83.1 ± 1.6%. The activity at 20 min, 60 µM (CYP2D6; human, probe bufuralol) was 84.5 ± 1.8% and the activity at 20 min, 100 µM (CYP2D6; human, probe bufuralol) was 95 ± 7.5%.
